Test results: patent publication US20150143553A1, “Methods And Compositions Comprising A Drosophila Model Of Amyotrophic Lateral Sclerosis” (priority 2013, published 2015)
Counter-ions that a name gives are not always drawn.

test system: Drosophila larvae expressing wild-type TDP-43 in motor neurons; assay: Drug screen: rescue of lethality caused by wild-type TDP-43 expression in motor neurons (D42 Gal4); type: in vivo; conditions: Wild-type TDP-43; 25 μM; out of 15-20 pupae
From the text: […] Larvae expressing TDP-43 (wild type or mutant, as shown) are raised on drug containing food.
[…] Larvae expressing TDP-43 (wt or mutant) were raised on drug containing food.
Using a Drosophila model of ALS based on TDP-43 that recapitulates several aspects of the disease pathophysiology (33, 35), a drug screen aimed at identifying FDA approved compounds with neuroprotective potential in vivo were designed (FIG. 37A). […] This phenotype was used to screen for drug candidates with therapeutic potential as determined by their ability to rescue pupal lethality and produce viable adults with extended wings (FIG. 37A). […]
UAS TDP-43 males were crossed with D42-Gal4 female virgins on fly food containing either DMSO or pioglitazone. For DMSO controls, the same volume of DMSO as the corresponding drug concentration was added. Bromophenol blue was added to a final concentration of approximately 0.02% to ensure homogeneity. Crosses were made on drug food with 3 female virgins and 2 males in each vial, and were maintained at 25° C. unless noted. The parents were discarded after 5-7 days then the vials were screened for adult progeny with straight wings from day 14 to day 25. All adults were screened for TDP-43 expression by visualizing the YFP tag. Total number of pupae was counted on day 25. Percent survival was calculated using the formula (total number of straight-winged adults/total number of pupae)×100. All experiments were performed in triplicate.

With `CN(C)C(=N)N=C(N)N` [Metformin] the “Rescue Effect (out of 15-20 pupae) (drug conc.)” value was 2 adults.

same assay, conditions: transgene WT2; 30 μM in fly food

First: CCC(=O)O[C@]1(C(=O)SCF)[C@H](C)C[C@H]2[C@@H]3C[C@H](F)C4=CC(=O)C=C[C@]4(C)[C@@]3(F)[C@@H](O)C[C@@]21C [Fluticasone Propionate]
Second: CCOC(=O)O[C@]1(C(=O)COC(=O)CC)CC[C@H]2[C@@H]3CCC4=CC(=O)C=C[C@]4(C)[C@H]3[C@@H](O)C[C@@]21C [Prednicarbate]
The “Preliminary rescue result: adults with normal wings” value (“Preliminary rescue result: adults” for short) of the first is lower: 1 Adult Normal Wings Adults for the first, 2 Adult Normal Wings Adults for the second.

First: COc1ccc2c(c1)C(=O)N(CCc1ccc(S(=O)(=O)NC(=O)NC3CCCCC3)cc1)C(=O)C2(C)C [Gliquidone]
Second: COc1cnc(NS(=O)(=O)c2ccc(N)cc2)nc1 [Sulfameter]
The “Preliminary rescue result: adults” value of the first is higher: 7 Adult Normal Wings Adults for the first, 3 Adult Normal Wings Adults for the second.

`Oc1c(Cl)cc(Cl)c(Cl)c1Cc1c(O)c(Cl)cc(Cl)c1Cl` [Hexachlorophene] and `O=c1cc(-c2ccc(O)c(O)c2)oc2cc(O)cc(O)c12` [Luteolin] are the same in “Preliminary rescue result: adults” value: 1 Adult Normal Wings Adults for the first, 1 Adult Normal Wings Adults for the second.

Compared with `CC(C)Cn1cnc2c(N)nc3ccccc3c21` [Imiquimod], `Cc1nccn1CC1CCc2c(c3ccccc3n2C)C1=O` (stereo not drawn) [Ondansetron Hcl] is lower in “Preliminary rescue result: adults” value: 2 Adult Normal Wings Adults for the first, 1 Adult Normal Wings Adults for the second.

Compared with `C[C@H](O)C(=O)Nc1c(I)c(C(=O)NC(CO)CO)c(I)c(C(=O)NC(CO)CO)c1I` [Iopamidol], `COCC(=O)Nc1c(I)c(C(=O)NCC(O)CO)c(I)c(C(=O)N(C)CC(O)CO)c1I` (stereo not drawn) [Iopromide] is lower in “Preliminary rescue result: adults” value: 3 Adult Normal Wings Adults for the first, 1 Adult Normal Wings Adults for the second.

First: O=C(c1ccccc1)c1ccc2n1CCC2C(=O)O (stereo not drawn) [Ketorolac Tromethamine]
Second: COc1ccc(C(=O)c2ccccc2)c(O)c1 [Oxybenzone]
The “Preliminary rescue result: adults” value of the first is higher: 2 Adult Normal Wings Adults for the first, 1 Adult Normal Wings Adults for the second.

`CCC(=O)O[C@@](Cc1ccccc1)(c1ccccc1)[C@@H](C)CN(C)C` [Levopropoxyphene Napsylate] and `CCOC(=O)[C@H](CCc1ccccc1)N[C@@H](C)C(=O)N1Cc2ccccc2C[C@H]1C(=O)O` [Quinapril Hcl] are the same in “Preliminary rescue result: adults” value: 2 Adult Normal Wings Adults for the first, 2 Adult Normal Wings Adults for the second.

First: N[C@@H](Cc1cc(I)c(Oc2ccc(O)c(I)c2)c(I)c1)C(=O)O [Liothyronine]
Second: COc1ccc2cc([C@@H](C)C(=O)[O-])ccc2c1.[Na+] [R-Naproxen Na Salt]
The “Preliminary rescue result: adults” value of the first is higher: 3 Adult Normal Wings Adults for the first, 2 Adult Normal Wings Adults for the second.

First: C[C@H](CCC(=O)O)[C@H]1CC[C@H]2[C@@H]3CC[C@@H]4C[C@H](O)CC[C@]4(C)[C@H]3CC[C@]12C [Lithocholic Acid]
Second: CCOC(=O)[C@H](CCc1ccccc1)N[C@@H](C)C(=O)N1[C@H](C(=O)O)C[C@@H]2CCC[C@@H]21 [Ramipril]
The “Preliminary rescue result: adults” value of the first is higher: 7 Adult Normal Wings Adults for the first, 1 Adult Normal Wings Adults for the second.

`CCCNC(C)(C)COC(=O)c1ccccc1` [Meprylcaine HCl] and `CC(C)(C)NC[C@H](O)COc1ccccc1C1CCCC1` [Penbutolol Sulfate] are the same in “Preliminary rescue result: adults” value: 1 Adult Normal Wings Adults for the first, 1 Adult Normal Wings Adults for the second.

`CC[N+](C)(CC)CCOC(=O)C1c2ccccc2Oc2ccccc21` [Methantheline Bromide] and `CNCCCC1c2ccccc2C=Cc2ccccc21` [Protriptyline Hydrochloride] are the same in “Preliminary rescue result: adults” value: 1 Adult Normal Wings Adults for the first, 1 Adult Normal Wings Adults for the second.

`Cn1cc[nH]c1=S` [Methimazole] and `CCCc1cc(C(N)=S)ccn1` [Prothionamide] are the same in “Preliminary rescue result: adults” value: 1 Adult Normal Wings Adults for the first, 1 Adult Normal Wings Adults for the second.

First: C[N+]1(C)[C@@H]2CC[C@H]1C[C@@H](OC(=O)C(CO)c1ccccc1)C2 (stereo partly drawn) [Methylatropine Nitrate]
Second: OC(CCN1CCCC1)(c1ccccc1)C1CCCCC1 (stereo not drawn) [Procyclidine HCL]
The “Preliminary rescue result: adults” value of the first is higher: 2 Adult Normal Wings Adults for the first, 1 Adult Normal Wings Adults for the second.

`CC(=O)N[C@@H](CC(C)C)C(=O)O` [N-Acetyl-L-Leucine] and `CC1(C)[C@H](C(=O)O)N2C(=O)C[C@H]2S1(=O)=O` [Sulbactam] are the same in “Preliminary rescue result: adults” value: 1 Adult Normal Wings Adults for the first, 1 Adult Normal Wings Adults for the second.

Going from `CC1(C)NC(=O)N(c2ccc([N+](=O)[O-])c(C(F)(F)F)c2)C1=O` [Nilutamide] to `COc1ccc(C2CNC(=O)C2)cc1OC1CCCC1` (stereo not drawn) [Rolipram], the “Preliminary rescue result: adults” value falls from 11 Adult Normal Wings Adults to 1 Adult Normal Wings Adults.

First: CNC(=C[N+](=O)[O-])NCCSCc1csc(CN(C)C)n1 [Nizatidine]
Second: C=CCOc1ccccc1OCC(O)CNC(C)C (stereo not drawn) [Oxprenolol Hcl]
The “Preliminary rescue result: adults” value of the first is higher: 2 Adult Normal Wings Adults for the first, 1 Adult Normal Wings Adults for the second.

`Nc1ccc(/N=N/c2ccccc2)c(N)n1` [Phenazopyridine Hydrochloride] and `COc1cc2nc(N3CCN(C(=O)c4ccco4)CC3)nc(N)c2cc1OC` [Prazosin Hydrochloride] are the same in “Preliminary rescue result: adults” value: 1 Adult Normal Wings Adults for the first, 1 Adult Normal Wings Adults for the second.

Going from `COc1cc([C@@H]2c3cc4c(cc3[C@H](O)[C@H]3COC(=O)[C@H]23)OCO4)cc(OC)c1OC` [Podophyllotoxin] to `CCCOc1cc(N)ccc1C(=O)OCCN(CC)CC` [Propoxycaine Hcl], the “Preliminary rescue result: adults” value falls from 8 Adult Normal Wings Adults to 1 Adult Normal Wings Adults.

For `CN1CCN(c2c(F)cc3c(=O)c(C(=O)O)cn4c3c2SCC4)CC1` [Rufloxacin], the “Preliminary rescue result: adults” value was 1 Adult Normal Wings Adults.

`CC(CNC1CCCCC1)OC(=O)c1ccccc1` (stereo not drawn) [Hexylcaine HCl] was tested, and the “Preliminary rescue result: adults” value was 6 Adults Normal Wings.

In the case of `CCC1(c2ccccc2)NC(=O)N(C)C1=O` (stereo not drawn) [Mephenytoin], the “Preliminary rescue result: adults” value was 2/1.
In the case of `CCCCc1ccc2[nH]c(NC(=O)OC)nc2c1` [Parbendazole], the “Preliminary rescue result: adults” value was 2/1.

`CCC(=O)[C@@]1(C)[C@H](C)C[C@H]2[C@@H]3CCC4=CC(=O)C=C[C@]4(C)[C@H]3[C@@H](O)C[C@@]21C` [Rimexolone] and `Cc1nc2n(c(=O)c1CCN1CCC(c3noc4cc(F)ccc34)CC1)CCCC2` [Risperidone] are the same in “Preliminary rescue result: adults” value: 1 Adult Normal Wing Adults for the first, 1 Adult Normal Wing Adults for the second.

same assay, conditions: transgene WT2; 50 μM in fly food

`CC(C(=O)O)c1cccc(C(=O)c2ccccc2)c1` (stereo not drawn) [Ketoprofen] and `CCOc1cc(CC(=O)N[C@@H](CC(C)C)c2ccccc2N2CCCCC2)ccc1C(=O)O` [Repaglinide] are the same in “Preliminary rescue result: adults” value: 1 Adult Normal Wings Adults for the first, 1 Adult Normal Wings Adults for the second.

Compared with `O=S(=O)(O)CCS` [Mesna], `Nc1ccc(S(N)(=O)=O)cc1` [Sulfanilamide] is lower in “Preliminary rescue result: adults” value: 4 Adult Normal Wings Adults for the first, 1 Adult Normal Wings Adults for the second.

`Cc1cc(-c2ccccc2)nnc1NCCN1CCOCC1` [Minaprine Dihydrochloride] and `C#CCN(C)Cc1ccccc1` [Pargyline Hydrochloride] are the same in “Preliminary rescue result: adults” value: 1 Adult Normal Wings Adults for the first, 1 Adult Normal Wings Adults for the second.

Going from `Cc1ccsc1/C=C/C1=NCCCN1C` [Morantel Tartrate] to `O=C1NCCN1c1ncc([N+](=O)[O-])s1` [Niridazole], the “Preliminary rescue result: adults” value rises from 1 Adult Normal Wings Adults to 3 Adult Normal Wings Adults.

`COc1cc(NC(C)CCCN)c2ncccc2c1` (stereo not drawn) [Primaquine Diphosphate] and `Cc1noc(NS(=O)(=O)c2ccc(N)cc2)c1C` [Sulfisoxazole] are the same in “Preliminary rescue result: adults” value: 1 Adult Normal Wings Adults for the first, 1 Adult Normal Wings Adults for the second.

For `CN[C@@H]1[C@@H](O)[C@@H](O[C@@H]2[C@@H](O)[C@H](O[C@H]3OC(CN)=CC[C@H]3N)[C@@H](N)C[C@H]2N)OC[C@]1(C)O` [Sisomicin Sulfate], the “Preliminary rescue result: adults” value was 1 Adult Normal Wings Adults.

Compared with `COc1ccc2[nH]cc(CCNC(C)=O)c2c1` [Melatonin], `CCN1CCC[C@H]1CNC(=O)c1c(O)c(Cl)cc(Cl)c1OC` [Raclopride] is lower in “Preliminary rescue result: adults” value: 4 Adults Normal Wings for the first, 2 Adults Normal Wings for the second.

`CC(=O)Nc1c(I)c(C(=O)N[C@H]2C(O)O[C@H](CO)[C@@H](O)[C@@H]2O)c(I)c(N(C)C(C)=O)c1I` (stereo partly drawn) [Metrizamide] and `CC(NCCc1ccc(O)cc1)C(O)c1ccc(O)cc1` (stereo not drawn) [Ritodrine] are the same in “Preliminary rescue result: adults” value: 2 Adults Normal Wings for the first, 2 Adults Normal Wings for the second.

For `CN(C)C(=O)Oc1cccc([N+](C)(C)C)c1` [Neostigmine Bromide], the “Preliminary rescue result: adults” value was 5 Adults Straight Wings.

In the case of `CC(N)C(O)c1ccccc1` (stereo not drawn) [Phenylpropanolamine Hydrochloride], the “Preliminary rescue result: adults” value was 1 Adult: 1 Normal Wing Adults.
